Experimental findings from PubChem BioAssay (NCI) are described below.

Assay in all cases: inhibition of tumour cell growth, NCI panel, 48 h
The test system of experiment [1] is SK-MEL-5 melanoma.
For experiment [2], the system named is SK-MEL-28 melanoma.
Experiment [3] deals with HT29 colon.
In experiment [4] the test system is NCI-H460 lung.
Experiment [5] has as its system NCI-H226 lung.
Experiment [6] relates to MDA-MB-435.
Experiment [7] relates to SNB-75 CNS.
For experiment [8], the system named is SF-539 CNS.
The test system of experiment [9] is SK-OV-3 ovarian.

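Step 1: Grow cells in 96-well plates. Step 2: Expose to compound for 48 hours at 5 concentrations. Step 3: Interpolate endpoints linearly; if unreached, use highest concentration. TGI: concentration producing complete growth inhibition.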

As to `O=c1[nH]c(=O)n(COCc2ccccc2)cc1Nc1ccc(Br)cc1`, the TGI in experiment [1], in [2], in experiment [3], in [4], in experiment [5] and in experiment [6] was greater than 100 µM each time.

`C=C1C(=O)O[C@H]2C[C@@H]1[C@@H](O)[C@H](O)[C@@H](C)CCCC(C)=CCC[C@@]2(C)O`: the TGI in experiment [1] is 48.4 µM; in experiment [7] it was greater than 100 µM; in experiment [2] it was 77.7 µM; in experiment [8] it was 30.1 µM; in experiment [4], 54.1 µM; in experiment [9] it was greater than 100 µM. Also, the TGI in [6] was greater than 100 µM.

Take `NCCN1C(=O)c2ccccc2C1c1ccc(Cl)cc1` (configuration not stated): the TGI in experiment [1], in experiment [7], in experiment [2], in experiment [8], in [3] and in [4] was greater than 100 µM each time. The TGI in [9] and in experiment [6] was greater than 100 µM in each case.

As to `O=C(NO)NCCCl`, the TGI in experiment [1], in experiment [7], in experiment [8], in experiment [3], in [4] and in experiment [9] was greater than 100 µM each time. The TGI in experiment [5] and in experiment [6] was greater than 100 µM throughout.

With `Cc1cc2nc3c(C#N)c4c(c(-c5ccc(Cl)cc5)n3c2cc1C)CCC4`, the TGI in experiment [1] is 40.3 µM; in [2], 50.3 µM; in experiment [8] it was 78.9 µM; in [3], 40.5 µM; in experiment [4], greater than 100 µM; in experiment [9] it was 34.1 µM. Also, the TGI came to 41 µM in experiment [5] and 54.8 µM in experiment [6].

Consider `CC(C)(C)N/N=C(\C(=O)NC1=C(Cl)C(=O)c2ccccc2C1=O)C1C=CCS1(=O)=O` (configuration not stated), for which the TGI in experiment [7] was 24 µM; in experiment [2] it was greater than 100 µM; in experiment [8], 54.2 µM; in experiment [3], 29.3 µM; in experiment [4] it was 22 µM; in [9], greater than 100 µM. This compound also gave a TGI in [5] of 27.9 µM.

Turning to `CC(C)=CC[C@]12CCN(C)[C@H]1N(S(=O)(=O)c1ccccc1)c1ccccc12`, the TGI was greater than 100 µM in experiment [7]; greater than 100 µM in experiment [2]; greater than 100 µM in [8]; greater than 100 µM in experiment [3]; greater than 73.5 µM in experiment [4]; greater than 100 µM in [9]. The TGI was greater than 100 µM in experiment [5] and greater than 71.6 µM in experiment [6].

Consider `NC(Cc1ccc2nc3c4ccccc4c(=O)cc-3oc2c1)C(=O)O` (configuration not stated), for which the TGI in experiment [1] is 34.6 µM; in experiment [7], greater than 100 µM; in experiment [2], greater than 100 µM; in experiment [8], greater than 100 µM; in experiment [3] it was greater than 100 µM; in experiment [4] it was greater than 100 µM. Further, the values for the TGI in experiment [9] and in experiment [6] were greater than 100 µM and 32.3 µM, respectively.

Regarding `CC(=O)OC1[C@H](OC(C)=O)C2=C(C)[C@@H](OC(C)=O)C[C@@]2(C(C)(C)O)[C@@H](OC(C)=O)[C@H]2[C@@]1(C)[C@@H](OC(C)=O)CC(OC(C)=O)[C@]21CO1` (some centres not stated), the TGI in experiment [1], in experiment [7], in experiment [2], in experiment [8], in [3] and in experiment [9] was greater than 100 µM each time. Besides, the TGI in [5] and in [6] was greater than 100 µM in each case.

In the case of `O=C1CN(c2cccc(Cl)c2)C(=O)CN1NCNN1CC(=O)N(c2cccc(Cl)c2)CC1=O`, the TGI in experiment [1], in experiment [7], in experiment [2], in experiment [8], in [3] and in experiment [4] was greater than 100 µM each time. Moreover, the TGI in experiment [9] and in experiment [6] was greater than 100 µM in each case.

Consider `CNc1ncnc2c1nc(NC1CCCC1)n2C1OC(CO)C(O)C1O` (configuration not stated), for which the TGI in experiment [1], in experiment [2], in experiment [8], in [3], in experiment [4] and in [9] was greater than 100 µM in each case. This compound also showed a TGI in experiment [6] greater than 100 µM.

Consider `C[C@]12CC(c3ccccc3O1)C(C(=O)Nc1nc(C34CC5CC(CC(C5)C3)C4)cs1)C(=O)N2` (some centres not stated), for which the TGI in experiment [1], in experiment [7], in [2], in experiment [3], in experiment [4] and in experiment [9] was greater than 100 µM throughout. Also, the TGI in [5] and in experiment [6] was greater than 100 µM each time.

In the case of `O=C(O)[C@H](CCC[C@H]1C(=O)O[C@H](c2ccccc2)[C@H](c2ccccc2)N1C(=O)OCc1ccccc1)N[C@@H](c1ccccc1)[C@H](O)c1ccccc1`, the TGI in experiment [1] was 43 µM; in experiment [7], 55.1 µM; in [2], 39 µM; in experiment [8] it was 34.4 µM; in [3], greater than 100 µM; in experiment [4], greater than 100 µM. For the same compound, the TGI was greater than 100 µM in [9] and 40.8 µM in [6].

For the compound `COC(=O)C1(SC)C2CCC3C2CCC31` (configuration not stated), the TGI in [1], in [7], in experiment [2], in [8], in experiment [4] and in experiment [9] was greater than 100 µM in each case. In addition, the TGI in experiment [5] and in [6] was greater than 100 µM throughout.

As to `O=c1[nH]c(NCc2ccc(Cl)cc2)nc2nc[nH]c12`, the TGI in experiment [1], in [7], in [8], in [3], in experiment [4] and in [9] was greater than 100 µM in each case. Besides, the TGI in experiment [5] and in experiment [6] was greater than 100 µM each time.

With `Br[C@@H]1[C@H]2c3nc4ccccc4nc3[C@@H]1C[C@H]2Br`, the TGI in [1] was 69.5 µM; in [2], greater than 100 µM; in experiment [3], greater than 100 µM; in [4], greater than 100 µM; in experiment [9] it was greater than 100 µM; in experiment [5], 86.2 µM. Also, the TGI in experiment [6] was greater than 100 µM.
